# Assay results taken from patent US12213483B1, “Herbicidal compositions comprising trifludimoxazin” (BASF SE, priority 2024, dated 2025).
# Columns and labels:
# Type in all cases: in vivo
# [1] = system: Commelina benghalensis (COMBE); experiment: Post-emergence application in greenhouse trials, COMBE
# Method: (§1) In the examples below, using the method of S. R. Colby (1967) “Calculating synergistic and antagonistic responses of herbicide combinations”, Weeds 15, p. 22ff., the value E, which is expected if the activity of the individual active compounds is only additive, was calculated: E=X+Y−(X·Y/100) • where • X=percent activity using active herbicide A at an application rate a; • Y=percent activity using active trifludimoxazin at an application rate b; • E=expected activity (in %) by A+B at application rates a+b.
# (§2) If the value found experimentally is higher than the value E calculated according to Colby, a synergistic effect is present.
# (§3) The culture containers used were plastic pots containing loamy sand with approximately 3.0% of humus as substrate. The seeds of the test plants were sown separately for each species.
# (§4) For the post-emergence treatment, the test plants were grown to a plant height of from 3 to 15 cm, depending on the plant habit, and only then treated with the active compounds which had been suspended or emulsified in water. To this end, the test plants were either sown directly, and grown in the same containers, or they were first grown separately as seedlings and transplanted into the test containers a few days prior to treatment.
# (§5) Depending on the species, the plants were kept at 10-25° C. and 20-35° C., respectively.
# (§6) The test period extended over 2 to 4 weeks. During this time, the plants were tended and their response to the individual treatments was evaluated.
# (§7) Evaluation was carried out using a scale from 0 to 100. 100 means no emergence of the plants, or complete destruction of at least the above-ground parts, and 0 means no damage or normal course of growth. A good herbicidal activity is given at values of at least 70, and very good herbicidal activity is given at values of at least 85.
# (§8) In the greenhouse trials, unless indicated otherwise, herbicide A, trifludimoxazin and saflufenacil were formulated (50 g/I) and applied with addition of 1% MSO (methylated seed oil) as adjuvant. The solvent used was water (200 I/ha).
# [2] = system: Avena fatua (AVEFA); experiment: Post-emergence application in greenhouse trials, AVEFA
# Method: as §1, §2, §3, §4, §5, §6, §7, §8
# [3] = system: Brachiaria decumbens (BRADC); experiment: Post-emergence application in greenhouse trials, BRADC; conditions: GS 13
# Method: as §1, §2, §3, §4, §5, §6, §7, §8
# [4] = system: Echinocloa crus-galli (ECHCG); experiment: Post-emergence application in greenhouse trials, ECHCG; conditions: GS 13
# Method: as §1, §2, §3, §4, §5, §6, §7, §8
# [5] = system: Setaria faberi (SETFA); experiment: Post-emergence application in greenhouse trials, SETFA; conditions: GS 13
# Method: as §1, §2, §3, §4, §5, §6, §7, §8
# [6] = system: Erigeron canadensis (ERICA); experiment: Post-emergence application in greenhouse trials, ERICA; conditions: 20 DAT, GS 19
# Method: as §1, §2, §3
# For the post-emergence treatment, the test plants were grown to a plant height of from 3 to 15 cm, depending on the plant habit, and only then treated with the active compounds which had been suspended or emulsified in water. To this end, the test plants were either sown directly, and grown in the same containers, or they were first grown separately as seedlings and transplanted into the test containers a few days prior to treatment. […]
# The test period extended over 2 to 4 weeks. During this time, the plants were tended and their response to the individual treatments was evaluated. […]
# [7] = system: Lolium multiflorum (LOLMU); experiment: Post-emergence application in greenhouse trials, LOLMU; conditions: 20 DAT
# Method: as §1, §2, §3, §4, §5, §6, §7, §8
# [8] = system: Sinapis alba (SINAL); experiment: Post-emergence application in field trials, SINAL; conditions: 7 DAT; water volume 200 l/ha; growth stage 14-21; height 11-12 cm; 12.5 g ai/ha
# Method: as §1, §2
# (§9) On field test sites, natural weed infestation or seeded weeds were treated post-emergence of the weeds.
# (§10) In the field trials, the weedy plants were treated as indicated below.
# (§11) Herbicide A-1 (342 g/I), trifludimoxazin (500 g/I) and saflufenacil (342 g/I) were, together with addition of 1% MSO (methylated seed oil) as adjuvant (unless indicated otherwise), formulated in water as distribution medium as indicated and sprayed with commercial flat fan nozzles.
# (§12) In the following experiments, the herbicidal activity for the individual herbicidal compositions (solo and mixture applications) was assessed at the indicated days after treatment (DAT). […]
# [9] = system: Sorghum bicolor (SORVU); experiment: Post-emergence application in field trials, SORVU; conditions: 22 DAT, water volume 200 l/ha, growth stage 21-31, volunteer crop, non PPO-i herbicide tolerant
# Method: as §1, §2, §9, §10, §11, §12
# [10] = system: Avena fatua (AVEFA); experiment: Post-emergence application in field trials, AVEFA; conditions: 29 DAT; water volume 100 l/ha; pre plant burndown; growth stage 14-23; height 24-40 cm; 18 g ai/ha
# Method: as §1, §2, §9, §10, §11
# In the following experiments, the herbicidal activity for the individual herbicidal compositions (solo and mixture applications) was assessed at the indicated days after treatment (DAT). The assessments for the damage on undesired weeds caused by the composition was carried out using a scale from 0 to 100%, compared to the untreated control plants. Here, 0 means no damage and 100 means complete destruction of the plants.
# Herbicide A-1 (100 g/l) and trifludimoxazin (500 g/l) were, together with addition of 1% MSO (methylated seed oil) as adjuvant (unless indicated otherwise), formulated in water as distribution medium as indicated and sprayed with commercial flat fan nozzles.
# [11] = system: Kochia scoparia (KCHSC); experiment: Post-emergence application in field trials, KCHSC; conditions: 28 DAT; water volume 100 l/ha; pre plant burndown; growth stage 11-16; height 1-9 cm; 18 g ai/ha
# Method: as §1, §2, §9, §10, §11, §12
# [12] = 20 DAT, growth stage 21, 0.3 g ai/ha
smiles,measurement,setting,value
"CCOC(=O)COc1ccccc1Oc1nc(-n2c(=O)cc(C(F)(F)F)n(C)c2=O)c(F)cc1Cl [A-1, ethyl 2-[2-[[3-chloro-5-fluoro-6-[3-methyl-2,6-dioxo-4-(trifluoromethyl)pyrimidin-1-yl]-2-pyridyl]oxy]phenoxy]acetate]",% Herbicidal activity,"[1]; 6 DAT, GS 21, A-1 0.3 g ai/ha",65%
same,% Herbicidal activity,"[1]; 20 DAT, GS 21, A-1 0.3 g ai/ha",45%
same,% Herbicidal activity,[1]; [12],45%
same,% Herbicidal activity,"[2]; 7 DAT, GS 13, A-1 1 g ai/ha",65%
same,% Herbicidal activity,"[2]; 20 DAT, B-1 formulated as 500 g/l, GS 12, A-1 2 g ai/ha",98%
same,% Herbicidal activity,"[2]; 20 DAT, GS 13, A-1 0.3 g ai/ha",15%
same,% Herbicidal activity,"[2]; 20 DAT, growth stage 13, 0.3 g ai/ha",15%
same,% Herbicidal activity,"[3]; 7 DAT, B-1 formulated as 500 g/l, A-1 2 g ai/ha",90%
same,% Herbicidal activity,"[3]; 7 DAT, A-1 0.4 g ai/ha",40%
same,% Herbicidal activity,"[3]; 7 DAT, A-1 0.8 g ai/ha",50%
same,% Herbicidal activity,"[3]; 7 DAT, A-1 0.9 g ai/ha",60%
same,% Herbicidal activity,"[3]; 7 DAT, A-1 1 g ai/ha",60%
same,% Herbicidal activity,"[3]; 20 DAT, B-1 formulated as 500 g/l, A-1 2 g ai/ha",90%
same,% Herbicidal activity,"[3]; 20 DAT, A-1 0.9 g ai/ha",55%
same,% Herbicidal activity,"[4]; 7 DAT, A-1 0.4 g ai/ha",40%
same,% Herbicidal activity,"[4]; 20 DAT, A-1 0.2 g ai/ha",0%
same,% Herbicidal activity,"[5]; 7 DAT, A-1 0.3 g ai/ha",55%
same,% Herbicidal activity,"[5]; 7 DAT, A-1 0.5 g ai/ha",80%
same,% Herbicidal activity,"[5]; 20 DAT, A-1 0.3 g ai/ha",80%
same,% Herbicidal activity,[6]; A-1 0.2 g ai/ha,10%
same,% Herbicidal activity,"[7]; GS 13, A-1 0.3 g ai/ha",10%
same,% Herbicidal activity,"[7]; growth stage 13, 0.3 g ai/ha",10%
same,% Herbicidal activity,[8],55%
same,% Herbicidal activity,[9]; 20 g ai/ha,93%
same,% Herbicidal activity,[10],80%
same,% Herbicidal activity,[11],57%
"C#CCN1C(=O)C(F)(F)Oc2cc(F)c(-n3c(=O)n(C)c(=S)n(C)c3=O)cc21 [B-1, trifludimoxazin]",% Herbicidal activity,"[1]; 6 DAT, GS 21, B-1 0.3 g ai/ha",45%
same,% Herbicidal activity,"[1]; 20 DAT, GS 21, B-1 0.3 g ai/ha",0%
same,% Herbicidal activity,"[1]; 20 DAT, GS 21, B-1 0.9 g ai/ha",15%
same,% Herbicidal activity,[1]; [12],0%
same,% Herbicidal activity,"[2]; 7 DAT, GS 13, B-1 0.2 g ai/ha",20%
same,% Herbicidal activity,"[2]; 20 DAT, B-1 formulated as 500 g/l, GS 12, B-1 1 g ai/ha",15%
same,% Herbicidal activity,"[2]; 20 DAT, growth stage 13, 0.9 g ai/ha",20%
same,% Herbicidal activity,"[3]; 7 DAT, B-1 formulated as 500 g/l, B-1 1 g ai/ha",15%
same,% Herbicidal activity,"[3]; 7 DAT, B-1 formulated as 500 g/l, B-1 2 g ai/ha",15%
same,% Herbicidal activity,"[3]; 7 DAT, B-1 0.2 g ai/ha",10%
same,% Herbicidal activity,"[3]; 7 DAT, B-1 0.3 g ai/ha",10%
same,% Herbicidal activity,"[3]; 7 DAT, B-1 0.4 g ai/ha",10%
same,% Herbicidal activity,"[3]; 7 DAT, B-1 0.8 g ai/ha",45%
same,% Herbicidal activity,"[3]; 20 DAT, B-1 formulated as 500 g/l, B-1 2 g ai/ha",10%
same,% Herbicidal activity,"[3]; 20 DAT, B-1 0.3 g ai/ha",5%
same,% Herbicidal activity,"[4]; 7 DAT, B-1 0.8 g ai/ha",40%
same,% Herbicidal activity,"[4]; 20 DAT, B-1 1.1 g ai/ha",60%
same,% Herbicidal activity,"[5]; 7 DAT, B-1 0.9 g ai/ha",45%
same,% Herbicidal activity,"[5]; 20 DAT, B-1 0.3 g ai/ha",15%
same,% Herbicidal activity,"[5]; 20 DAT, B-1 0.9 g ai/ha",70%
same,% Herbicidal activity,[6]; B-1 1.1 g ai/ha,40%
same,% Herbicidal activity,"[7]; growth stage 13, 0.9 g ai/ha",15%
same,% Herbicidal activity,[8],82%
same,% Herbicidal activity,[9]; 12.5 g ai/ha,20%
same,% Herbicidal activity,[10],0%
same,% Herbicidal activity,[11],68%
